Holding throughout (assay): biochemical
Parameters in all cases: KINOMEscan scanMAX active site-directed competition binding assay, percent of control, 468 kinases
Conditions in all cases: competition binding, percent of control

One experiment concerns the target PIK3CA(I800L) (Homo sapiens, UniProt P42336, I800L). A digest of the protocol: (§1)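 Single-concentration screen (100 μM S-carvone) in a competition binding panel of 468 human kinases (KINOMEscan scanMAX); results given as percent of control, hit cutoff 35%.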
Another experiment concerns the target EGFR(L858R) (Homo sapiens, UniProt P00533, L858R). A digest of the protocol: as §1
Another experiment deals with PDPK1 (Homo sapiens, UniProt O15530). In short, it runs like this:
as §1

In experiment [1] the target is T1, RSK1(Kin.Dom.1-N-terminal) (Homo sapiens, UniProt Q15418).
T1 construct: gene RPS6KA1; Kin.Dom.1-N-terminal
In short, it runs like this: as §1

Another experiment deals with BMPR1A (Homo sapiens, UniProt P36894). In short, it runs like this: as §1
Another experiment concerns the target T2, TRKA (Homo sapiens, UniProt P04629).
T2 construct: gene NTRK1
In short, it runs like this: as §1

Another experiment concerns the target EGFR(G719C) (Homo sapiens, UniProt P00533, G719C). A digest of the protocol:
as §1

The next experiment deals with T3, DCAMKL1 (Homo sapiens, UniProt O15075).
T3 construct: gene DCLK1
A digest of the protocol: as §1

In a further experiment the target is ULK2 (Homo sapiens, UniProt Q8IYT8). In short, it runs like this:
as §1

The target in another experiment is MAPKAPK2 (Homo sapiens, UniProt P49137). A digest of the protocol:
as §1

The target in the next experiment is ULK3 (Homo sapiens, UniProt Q6PHR2). In short, it runs like this:
as §1

A further experiment addresses FGFR3 (Homo sapiens, UniProt P22607). In short, it runs like this:
as §1

In the next experiment the target is EPHA2 (Homo sapiens, UniProt P29317). A digest of the protocol:
as §1

The target in a further experiment is T4, MLK1 (Homo sapiens, UniProt P80192).
T4 construct: gene MAP3K9
A digest of the protocol: as §1

In another experiment the target is MKNK2 (Homo sapiens, UniProt Q9HBH9). A digest of the protocol:
as §1

For a further experiment, the target named is T5, TRKC (Homo sapiens, UniProt Q16288).
T5 construct: gene NTRK3
T5 sequence (Q16288 whole entry): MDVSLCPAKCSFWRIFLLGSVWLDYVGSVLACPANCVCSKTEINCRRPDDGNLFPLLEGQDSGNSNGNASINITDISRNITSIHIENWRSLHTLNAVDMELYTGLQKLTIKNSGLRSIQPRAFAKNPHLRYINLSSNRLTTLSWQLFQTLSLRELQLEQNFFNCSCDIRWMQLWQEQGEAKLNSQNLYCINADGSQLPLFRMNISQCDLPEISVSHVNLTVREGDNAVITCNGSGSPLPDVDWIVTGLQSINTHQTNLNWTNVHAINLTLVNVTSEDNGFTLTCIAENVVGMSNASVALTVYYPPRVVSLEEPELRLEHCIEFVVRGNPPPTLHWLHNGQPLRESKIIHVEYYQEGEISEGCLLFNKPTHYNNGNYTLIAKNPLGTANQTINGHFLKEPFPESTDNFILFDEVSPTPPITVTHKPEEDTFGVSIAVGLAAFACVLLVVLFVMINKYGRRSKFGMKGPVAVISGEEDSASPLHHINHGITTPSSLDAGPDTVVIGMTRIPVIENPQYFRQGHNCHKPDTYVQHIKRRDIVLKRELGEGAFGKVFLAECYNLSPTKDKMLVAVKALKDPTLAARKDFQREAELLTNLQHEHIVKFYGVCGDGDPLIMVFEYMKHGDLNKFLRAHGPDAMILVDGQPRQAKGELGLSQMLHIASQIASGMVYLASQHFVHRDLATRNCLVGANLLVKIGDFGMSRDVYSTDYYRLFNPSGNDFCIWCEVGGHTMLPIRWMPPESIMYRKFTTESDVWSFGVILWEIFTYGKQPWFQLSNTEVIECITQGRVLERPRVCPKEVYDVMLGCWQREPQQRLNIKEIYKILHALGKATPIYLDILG
In short, it runs like this:
as §1

The target of the next experiment is T6, ERK5 (Homo sapiens, UniProt Q13164).
T6 construct: gene MAPK7
In short, it runs like this: as §1

A further experiment concerns the target BRSK2 (Homo sapiens, UniProt Q8IWQ3). In short, it runs like this: as §1
Experiment [2] concerns the target T7, ABL1(F317L)-phosphorylated (Homo sapiens, UniProt P00519, F317L).
T7 construct: phosphorylated
In short, it runs like this: as §1

Another experiment concerns the target TGFBR1 (Homo sapiens, UniProt P36897). A digest of the protocol:
as §1

Another experiment deals with FLT3(N841I) (Homo sapiens, UniProt P36888, N841I). In short, it runs like this: as §1

Chain of EPHA2 (P29317 whole entry): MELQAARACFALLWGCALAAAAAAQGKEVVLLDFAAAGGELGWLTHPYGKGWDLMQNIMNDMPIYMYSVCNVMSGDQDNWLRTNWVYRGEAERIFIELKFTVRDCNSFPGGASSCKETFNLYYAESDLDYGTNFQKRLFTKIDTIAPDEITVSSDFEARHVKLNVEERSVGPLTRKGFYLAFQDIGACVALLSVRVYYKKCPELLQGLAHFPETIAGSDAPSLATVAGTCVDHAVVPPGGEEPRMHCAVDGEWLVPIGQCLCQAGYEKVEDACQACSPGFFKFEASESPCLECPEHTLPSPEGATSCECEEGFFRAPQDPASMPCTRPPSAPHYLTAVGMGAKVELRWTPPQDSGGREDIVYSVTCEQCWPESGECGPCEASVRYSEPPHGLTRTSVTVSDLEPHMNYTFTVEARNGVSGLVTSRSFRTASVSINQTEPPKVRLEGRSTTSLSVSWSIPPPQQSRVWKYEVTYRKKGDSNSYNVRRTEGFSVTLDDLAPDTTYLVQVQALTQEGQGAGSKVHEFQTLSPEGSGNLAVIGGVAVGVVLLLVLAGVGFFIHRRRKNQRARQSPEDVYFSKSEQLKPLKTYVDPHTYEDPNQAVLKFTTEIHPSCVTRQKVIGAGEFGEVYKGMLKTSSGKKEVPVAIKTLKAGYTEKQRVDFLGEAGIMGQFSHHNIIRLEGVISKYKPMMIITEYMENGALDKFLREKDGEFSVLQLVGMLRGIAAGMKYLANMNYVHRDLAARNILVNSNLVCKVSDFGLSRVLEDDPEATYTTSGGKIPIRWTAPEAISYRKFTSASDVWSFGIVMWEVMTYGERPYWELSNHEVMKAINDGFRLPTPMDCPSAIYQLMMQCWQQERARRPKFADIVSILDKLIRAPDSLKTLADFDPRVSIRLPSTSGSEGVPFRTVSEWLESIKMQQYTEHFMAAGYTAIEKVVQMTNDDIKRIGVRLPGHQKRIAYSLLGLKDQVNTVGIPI
Chain of PIK3CA(I800L) (P42336 whole entry I800L): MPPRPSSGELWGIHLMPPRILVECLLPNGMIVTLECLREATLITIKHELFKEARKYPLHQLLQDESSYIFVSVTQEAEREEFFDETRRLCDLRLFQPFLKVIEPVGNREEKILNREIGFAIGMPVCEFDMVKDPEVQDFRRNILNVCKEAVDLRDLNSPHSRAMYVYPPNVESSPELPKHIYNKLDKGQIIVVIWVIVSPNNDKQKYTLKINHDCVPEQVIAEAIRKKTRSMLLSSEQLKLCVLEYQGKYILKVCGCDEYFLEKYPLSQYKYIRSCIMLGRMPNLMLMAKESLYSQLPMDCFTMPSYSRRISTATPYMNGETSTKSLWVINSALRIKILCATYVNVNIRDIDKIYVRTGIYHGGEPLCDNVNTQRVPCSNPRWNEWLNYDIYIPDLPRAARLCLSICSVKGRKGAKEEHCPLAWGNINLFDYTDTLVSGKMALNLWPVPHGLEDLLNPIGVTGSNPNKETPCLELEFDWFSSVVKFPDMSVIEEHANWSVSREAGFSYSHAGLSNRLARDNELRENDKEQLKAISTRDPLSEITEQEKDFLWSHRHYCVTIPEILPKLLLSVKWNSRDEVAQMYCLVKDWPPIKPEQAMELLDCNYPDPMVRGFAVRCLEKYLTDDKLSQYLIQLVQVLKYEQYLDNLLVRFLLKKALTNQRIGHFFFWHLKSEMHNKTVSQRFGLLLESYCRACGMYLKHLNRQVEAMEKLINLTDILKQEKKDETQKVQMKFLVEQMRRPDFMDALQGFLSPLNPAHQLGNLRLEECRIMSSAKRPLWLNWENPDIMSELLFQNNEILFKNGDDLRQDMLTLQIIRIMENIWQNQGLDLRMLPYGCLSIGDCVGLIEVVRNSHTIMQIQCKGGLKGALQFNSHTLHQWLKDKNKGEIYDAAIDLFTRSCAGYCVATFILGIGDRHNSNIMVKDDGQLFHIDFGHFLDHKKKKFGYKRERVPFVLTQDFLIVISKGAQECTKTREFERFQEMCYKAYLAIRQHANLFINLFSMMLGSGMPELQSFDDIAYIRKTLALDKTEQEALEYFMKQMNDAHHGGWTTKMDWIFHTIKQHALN
Chain of BRSK2 (Q8IWQ3 whole entry): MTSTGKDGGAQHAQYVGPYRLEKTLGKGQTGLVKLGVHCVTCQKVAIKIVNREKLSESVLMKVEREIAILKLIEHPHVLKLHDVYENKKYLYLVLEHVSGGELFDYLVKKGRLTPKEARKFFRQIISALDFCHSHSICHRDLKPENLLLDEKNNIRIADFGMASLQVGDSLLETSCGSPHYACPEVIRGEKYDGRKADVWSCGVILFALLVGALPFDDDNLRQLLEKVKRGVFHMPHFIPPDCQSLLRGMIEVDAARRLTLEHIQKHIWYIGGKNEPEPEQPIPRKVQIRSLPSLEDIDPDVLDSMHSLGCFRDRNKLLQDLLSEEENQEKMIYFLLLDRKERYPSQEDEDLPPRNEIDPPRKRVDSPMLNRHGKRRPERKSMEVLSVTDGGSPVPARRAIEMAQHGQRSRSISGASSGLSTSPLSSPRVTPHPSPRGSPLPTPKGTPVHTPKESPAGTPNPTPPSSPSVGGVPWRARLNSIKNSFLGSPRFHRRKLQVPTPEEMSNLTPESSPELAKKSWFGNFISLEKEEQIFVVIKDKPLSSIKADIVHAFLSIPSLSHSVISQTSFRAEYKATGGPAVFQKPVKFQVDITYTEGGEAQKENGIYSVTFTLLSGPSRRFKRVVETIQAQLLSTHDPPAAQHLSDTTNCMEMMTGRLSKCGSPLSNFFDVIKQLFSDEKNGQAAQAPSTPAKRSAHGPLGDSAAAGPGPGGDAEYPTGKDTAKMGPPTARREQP
Chain of MAPKAPK2 (P49137 whole entry): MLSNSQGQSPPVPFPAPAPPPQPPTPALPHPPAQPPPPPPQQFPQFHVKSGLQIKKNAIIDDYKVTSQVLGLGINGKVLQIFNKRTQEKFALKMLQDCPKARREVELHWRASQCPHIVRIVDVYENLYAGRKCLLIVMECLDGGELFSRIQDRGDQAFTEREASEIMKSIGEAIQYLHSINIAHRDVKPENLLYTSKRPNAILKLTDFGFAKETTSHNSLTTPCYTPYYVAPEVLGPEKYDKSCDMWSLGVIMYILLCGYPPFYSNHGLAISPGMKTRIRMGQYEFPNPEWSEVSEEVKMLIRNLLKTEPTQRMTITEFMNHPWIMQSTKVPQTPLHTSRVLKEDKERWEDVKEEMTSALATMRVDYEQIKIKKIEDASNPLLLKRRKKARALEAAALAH
Chain of ULK3 (Q6PHR2 whole entry): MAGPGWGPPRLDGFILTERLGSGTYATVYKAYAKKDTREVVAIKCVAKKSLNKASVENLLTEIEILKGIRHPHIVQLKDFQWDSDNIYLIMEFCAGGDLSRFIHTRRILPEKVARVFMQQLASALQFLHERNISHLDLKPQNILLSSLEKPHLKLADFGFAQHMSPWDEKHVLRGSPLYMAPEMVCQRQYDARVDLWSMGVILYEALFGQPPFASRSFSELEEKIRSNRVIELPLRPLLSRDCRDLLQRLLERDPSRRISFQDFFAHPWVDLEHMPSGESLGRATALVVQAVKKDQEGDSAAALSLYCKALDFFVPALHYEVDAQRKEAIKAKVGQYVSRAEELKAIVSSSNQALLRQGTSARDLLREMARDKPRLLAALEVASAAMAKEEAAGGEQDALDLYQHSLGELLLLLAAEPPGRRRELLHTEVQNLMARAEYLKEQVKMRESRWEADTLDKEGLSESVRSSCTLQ
Chain of PDPK1 (O15530 whole entry): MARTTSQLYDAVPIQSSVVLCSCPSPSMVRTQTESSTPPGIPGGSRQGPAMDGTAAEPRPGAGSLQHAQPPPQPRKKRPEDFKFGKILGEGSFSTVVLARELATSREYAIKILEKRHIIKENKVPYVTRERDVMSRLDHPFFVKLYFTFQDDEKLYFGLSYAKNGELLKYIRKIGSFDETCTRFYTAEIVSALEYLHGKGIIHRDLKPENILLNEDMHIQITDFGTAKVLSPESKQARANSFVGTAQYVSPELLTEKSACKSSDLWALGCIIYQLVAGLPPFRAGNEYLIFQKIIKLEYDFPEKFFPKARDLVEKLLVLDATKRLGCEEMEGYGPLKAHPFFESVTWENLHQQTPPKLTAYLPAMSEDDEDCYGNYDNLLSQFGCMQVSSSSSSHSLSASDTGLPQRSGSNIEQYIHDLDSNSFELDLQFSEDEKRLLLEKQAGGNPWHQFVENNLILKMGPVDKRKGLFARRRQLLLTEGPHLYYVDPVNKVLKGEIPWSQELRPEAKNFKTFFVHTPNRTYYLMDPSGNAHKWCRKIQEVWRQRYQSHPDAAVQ

Turning to `C=C(C)[C@H]1CC=C(C)C(=O)C1` [S-carvone], the remaining binding at 100 µM on PIK3CA(I800L) is 95%; at EGFR(L858R), 85%; on PDPK1, 74%; in experiment [1] it was 91%; on BMPR1A, 92%; on TRKA it was 82%. Besides, the remaining binding at 100 µM on EGFR(G719C) came to 74%; on DCAMKL1, 85%; at ULK2, 75%; on MAPKAPK2, 77%; at ULK3, 77%; on FGFR3 it was 75%. Besides, the remaining binding at 100 µM at EPHA2 turned out to be 71%; at MLK1 it was 92%; on MKNK2, 82%; at TRKC it was 82%; at ERK5 it was 93%; on BRSK2, 79%. Moreover, the remaining binding at 100 µM was found to be 93% in experiment [2], 100% at TGFBR1 and 63% at FLT3(N841I).

The values are drawn from publication PMC10174618, “Monoterpenoid aryl hydrocarbon receptor allosteric antagonists protect against ultraviolet skin damage in female mice” (Nature Communications, 2023).
